# Experimental data taken from patent US10683269B2 (MISSION THERAPEUTICS LIMITED, priority 2016, dated 2020).
# Target: T1, USP7 (Homo sapiens, UniProt Q93009)
# T1 construct: The USP7 construct was PCR amplified and cloned into a pFLAG-CMV-6a vector (Sigma-Aldrich) with an N-terminal FLAG tag; made in house; host or cells: HEK293T
# Experiment: USP7 biochemical IC50 assay (fluorescence polarisation, TAMRA labelled peptide linked to ubiquitin via an iso-peptide bond)
# Settings: 30 min pre-incubation of enzyme and compound, read after 2 hr incubation at room temperature, read-out: IC50 range
# Method in brief: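 Fluorescence polarisation at 540 nm excitation/590 nm emission, read immediately and after 2 hr at room temperature, following addition of 50 nM TAMRA-labelled iso-peptide ubiquitin substrate.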
# T1 sequence (Q93009 whole entry): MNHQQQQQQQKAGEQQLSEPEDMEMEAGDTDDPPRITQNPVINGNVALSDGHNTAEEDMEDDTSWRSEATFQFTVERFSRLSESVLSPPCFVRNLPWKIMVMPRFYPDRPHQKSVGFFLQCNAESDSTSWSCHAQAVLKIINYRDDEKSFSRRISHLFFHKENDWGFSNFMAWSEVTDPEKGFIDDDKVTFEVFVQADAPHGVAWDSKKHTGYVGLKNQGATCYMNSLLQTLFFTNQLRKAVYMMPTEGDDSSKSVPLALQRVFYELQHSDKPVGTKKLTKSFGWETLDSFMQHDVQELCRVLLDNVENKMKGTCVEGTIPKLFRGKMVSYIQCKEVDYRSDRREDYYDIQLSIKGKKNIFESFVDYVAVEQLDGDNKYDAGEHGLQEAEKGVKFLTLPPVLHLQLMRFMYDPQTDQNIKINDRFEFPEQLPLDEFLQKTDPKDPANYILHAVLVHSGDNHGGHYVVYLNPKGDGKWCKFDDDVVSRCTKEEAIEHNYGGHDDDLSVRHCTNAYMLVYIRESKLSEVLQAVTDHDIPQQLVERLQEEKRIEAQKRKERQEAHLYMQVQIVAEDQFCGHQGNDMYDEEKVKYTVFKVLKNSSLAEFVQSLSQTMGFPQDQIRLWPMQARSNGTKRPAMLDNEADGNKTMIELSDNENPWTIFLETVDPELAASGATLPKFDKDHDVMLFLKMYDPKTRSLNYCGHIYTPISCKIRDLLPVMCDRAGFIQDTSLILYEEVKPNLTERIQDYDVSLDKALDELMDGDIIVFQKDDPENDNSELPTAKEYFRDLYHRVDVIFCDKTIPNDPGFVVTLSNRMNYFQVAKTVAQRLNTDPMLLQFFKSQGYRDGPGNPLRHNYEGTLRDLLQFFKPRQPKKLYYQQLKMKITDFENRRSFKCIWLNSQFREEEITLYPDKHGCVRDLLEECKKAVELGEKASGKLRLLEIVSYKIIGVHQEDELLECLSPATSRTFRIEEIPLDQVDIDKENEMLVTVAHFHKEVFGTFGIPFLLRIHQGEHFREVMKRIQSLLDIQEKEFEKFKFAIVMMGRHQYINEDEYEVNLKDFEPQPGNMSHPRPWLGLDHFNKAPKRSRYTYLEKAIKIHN
row,IC50 [µM],SMILES
1,1 to 10,"N#CN1Cc2cccc(-c3cnc4[nH]ccc4c3)c2C1 [Example 9, 4-(1H-pyrrolo[2,3-b]pyridin-5-yl)isoindoline-2-carbonitrile]"
2,1 to 10,"N#CN1Cc2nc(NCCCn3ccnc3)nc(-c3ccccc3)c2C1 [Example 122, 2-((3-(1H-imidazol-1-yl)propyl)amino)-4-phenyl-5,7-dihydro-6H-pyrrolo[3,4-d]pyrimidine-6-carbonitrile]"
3,1 to 10,"CNC(=O)c1cc2c(c(-c3ccc(C#N)cc3)c1)CN(C#N)C2 [Example 237, 2-cyano-7-(4-cyanophenyl)-N-methylisoindoline-5-carboxamide]"
4,1 to 10,"COc1ccccc1-c1nc2c(c(N3CCc4ccccc4C3)n1)CN(C#N)C2 [Example 140, 4-(3,4-dihydroisoquinolin-2(1H)-yl)-2-(2-methoxyphenyl)-5,7-dihydro-6H-pyrrolo[3,4-d]pyrimidine-6-carbonitrile]"
5,1 to 10,"CC(=O)N(C)Cc1cc2c(c(-c3ccc(C#N)cc3)c1)CN(C#N)C2 [Example 218, N-((2-cyano-7-(4-cyanophenyl)isoindolin-5-yl)methyl)-N-methylacetamide]"
6,1 to 10,"CN1CCC(CNc2nc3c(c(-c4ccccc4)n2)CN(C#N)C3)C1 (stereo not shown) [Example 127, 2-(((1-methylpyrrolidin-3-yl)methyl)amino)-4-phenyl-5,7-dihydro-6H-pyrrolo[3,4-d]pyrimidine-6-carbonitrile]"
7,10 to 30,"N#CN1Cc2ncnc(N3CCN(c4ccc(F)cc4F)CC3)c2C1 [Example 99, 4-(4-(2,4-difluorophenyl)piperazin-1-yl)-5H-pyrrolo[3,4-d]pyrimidine-6(7H)-carbonitrile]"
8,1 to 10,"N#CN1Cc2nc(NCCO)nc(-c3ccccc3)c2C1 [Example 120, 2-((2-hydroxyethyl)amino)-4-phenyl-5,7-dihydro-6H-pyrrolo[3,4-d]pyrimidine-6-carbonitrile]"
9,1 to 10,"CN1CCOC(CNc2nc3c(c(-c4cccc(F)c4)n2)CN(C#N)C3)C1 (stereo not shown) [Example 193, 4-(3-fluorophenyl)-2-(((4-methylmorpholin-2-yl)methyl)amino)-5,7-dihydro-6H-pyrrolo[3,4-d]pyrimidine-6-carbonitrile]"
10,< 1,"CN1CCC[C@@H](C(=O)Nc2cc3c(c(-c4ccc(F)cc4)c2)CN(C#N)C3)C1 [Example 28, (R)-N-(2-cyano-7-(4-fluorophenyl)isoindolin-5-yl)-1-methylpiperidine-3-carboxamide]"
11,1 to 10,"N#CN1Cc2cccc(NC(=O)c3ccc(-c4cccnc4)cc3)c2C1 [Example 81, N-(2-cyanoisoindolin-4-yl)-4-(pyridin-3-yl)benzamide]"
12,1 to 10,"N#Cc1ccc(-c2cc(CNC(=O)C3CCS(=O)(=O)CC3)cc3c2CN(C#N)C3)cc1 [Example 220, N-((2-cyano-7-(4-cyanophenyl)isoindolin-5-yl)methyl)tetrahydro-2H-thiopyran-4-carboxamide 1,1-dioxide]"
13,1 to 10,"N#CN1Cc2cccc(Nc3ncc4ccccc4n3)c2C1 [Example 21, 4-(quinazolin-2-ylamino)isoindoline-2-carbonitrile]"
14,1 to 10,"N#CN1Cc2cc(NC[C@H](O)CO)cc(-c3ccc(F)cc3)c2C1 [Example 282, (S)-6((2,3-dihydroxypropyl)amino)-4-(4-fluorophenyl)isoindoline-2-carbonitrile]"
15,1 to 10,"Cc1nc2c(c(-c3cccc(N4CCCC4=O)c3)n1)CN(C#N)C2 [Example 289, 2-methyl-4-(3-(2-oxopyrrolidin-1-yl)phenyl)-5,7-dihydro-6H-pyrrolo[3,4-d]pyrimidine-6-carbonitrile]"
16,1 to 10,"N#CN1Cc2cccc(-c3ccccc3S(N)(=O)=O)c2C1 [Example 161, 2-(2-cyanoisoindolin-4-yl)benzenesulfonamide]"
17,1 to 10,"CS(=O)(=O)Nc1cc2c(c(-c3ccc(C#N)cc3C#N)c1)CN(C#N)C2 [Example 243, N-(2-cyano-7-(2,4-dicyanophenyl)isoindolin-5-yl)methanesulfonamide]"
18,10 to 30,"Cc1ccccc1-c1cc(C(=O)Nc2cccc3c2CN(C#N)C3)[nH]n1 [Example 83, N-(2-cyanoisoindolin-4-yl)-3-(o-tolyl)-1H-pyrazole-5-carboxamide]"
19,1 to 10,"CN1CCOC(CNc2nc3c(c(-c4ccccc4)n2)CN(C#N)C3)C1 (single isomer, unassigned) [Example 152, 2-(((4-methylmorpholin-2-yl)methyl)amino)-4-phenyl-5,7-dihydro-6H-pyrrolo[3,4-d]pyrimidine-6-carbonitrile]"
20,1 to 10,"N#Cc1ccc(-c2cccc3c2CN(C#N)C3)c(C(F)(F)F)c1 [Example 177, 4-(4-cyano-2-(trifluoromethyl)phenyl)isoindoline-2-carbonitrile]"
21,1 to 10,"Cn1cc(-c2nc3c(c(N4CCc5ccccc5C4)n2)CN(C#N)C3)cn1 [Example 142, 4-(3,4-dihydroisoquinolin-2(1H)-yl)-2-(1-methyl-1H-pyrazol-4-yl)-5,7-dihydro-6H-pyrrolo[3,4-d]pyrimidine-6-carbonitrile]"
22,1 to 10,"N#CN1Cc2cc(NC(=O)C3CN(Cc4ccccc4)CCO3)cc(-c3ccccc3)c2C1 (stereo not shown) [Example 40, 4-benzyl-N-(2-cyano-7-phenylisoindolin-5-yl)morpholine-2-carboxamide]"

row,IC50 [µM],SMILES
1,< 1,"N#CN1Cc2cc(NC(=O)C3CCOCC3)cc(-c3ccccc3)c2C1 [Example 50, N-(2-cyano-7-phenylisoindolin-5-yl)tetrahydro-2H-pyran-4-carboxamide]"
2,1 to 10,"Cn1cc(-c2cc3c(c(-c4ccccc4)c2)CN(C#N)C3)ccc1=O [Example 263, 6-(1-methyl-6-oxo-1,6-dihydropyridin-3-yl)-4-phenylisoindoline-2-carbonitrile]"
3,< 1,"CN1CCC(C(=O)Nc2cc3c(c(-c4ccccc4)c2)CN(C#N)C3)CC1 [Example 48, N-(2-cyano-7-phenylisoindolin-5-yl)-1-methylpiperidine-4-carboxamide]"
4,1 to 10,"Cn1nccc1CNc1nc2c(c(-c3ccccc3)n1)CN(C#N)C2 [Example 126, 2-(((1-methyl-1H-pyrazol-5-yl)methyl)amino)-4-phenyl-5,7-dihydro-6H-pyrrolo[3,4-d]pyrimidine-6-carbonitrile]"
5,1 to 10,"CN1CCC[C@@H](C(=O)Nc2cc3c(c(-c4ccncc4)c2)CN(C#N)C3)C1 [Example 163, (R)-N-(2-cyano-7-(pyridin-4-yl)isoindolin-5-yl)-1-methylpiperidine-3-carboxamide]"
6,1 to 10,"N#CN1Cc2cccc(-c3ccc(F)cc3C(N)=O)c2C1 [Example 158, 2-(2-cyanoisoindolin-4-yl)-5-fluorobenzamide]"
7,10 to 30,"N#CN1Cc2nc(NC3CCCc4ccccc43)nc(-c3ccccc3)c2C1 (stereo not shown) [Example 115, 4-phenyl-2-((1,2,3,4-tetrahydronaphthalen-1-yl)amino)-5,7-dihydro-6H-pyrrolo[3,4-d]pyrimidine-6-carbonitrile]"
8,1 to 10,"N#Cc1ccccc1-c1cc(C(N)=O)cc2c1CN(C#N)C2 [Example 241, 2-cyano-7-(2-cyanophenyl)isoindoline-5-carboxamide]"
9,1 to 10,"N#Cc1ccc(-c2cc(C(N)=O)cc3c2CN(C#N)C3)c(C#N)c1 [Example 233, 2-cyano-7-(2,4-dicyanophenyl)isoindoline-5-carboxamide]"
10,1 to 10,"CN1CC(c2cc3c(c(-c4ccccc4)c2)CN(C#N)C3)CCC1=O (stereo not shown) [Example 262, 6-(1-methyl-6-oxopiperidin-3-yl)-4-phenylisoindoline-2-carbonitrile]"
11,1 to 10,"N#CN1Cc2cccc(-c3ccccc3S(=O)(=O)N3CCC3)c2C1 [Example 178, 4-(2-(azetidin-1-ylsulfonyl)phenyl)isoindoline-2-carbonitrile]"
12,1 to 10,"N#CN1Cc2cccc(-c3ccnc(C(=O)NCc4ccccc4)c3)c2C1 [Example 79, N-benzyl-4-(2-cyanoisoindolin-4-yl)picolinamide]"
13,1 to 10,"N#CN1Cc2cccc(-c3ccc(Cl)cc3C(N)=O)c2C1 [Example 2, 5-chloro-2-(2-cyanoisoindolin-4-yl)benzamide]"
14,1 to 10,"COc1ccccc1-c1nc2c(c(N3CCCC3)n1)CN(C#N)C2 [Example 135, 2-(2-methoxyphenyl)-4-(pyrrolidin-1-yl)-5,7-dihydro-6H-pyrrolo[3,4-d]pyrimidine-6-carbonitrile]"
15,1 to 10,"N#Cc1ccccc1-c1cccc2c1CN(C#N)C2 [Example 166, 4-(2-cyanophenyl)isoindoline-2-carbonitrile]"
16,1 to 10,"CC(=O)N1CCCC(C(=O)Nc2cc3c(c(-c4ccccc4)c2)CN(C#N)C3)C1 (stereo not shown) [Example 45, 1-acetyl-N-(2-cyano-7-phenylisoindolin-5-yl)piperidine-3-carboxamide]"
17,1 to 10,"Cn1cc(-c2cccc3c2CN(C#N)C3)cn1 [Example 7, 4-(1-methyl-1H-pyrazol-4-yl)isoindoline-2-carbonitrile]"
18,< 1,"Cc1nc2ccc(-c3cc(NC(=O)[C@@H]4CCCN(C)C4)cc4c3CN(C#N)C4)cc2o1 [Example 35, (R)-N-(2-cyano-7-(2-methylbenzo[d]oxazol-6-yl)isoindolin-5-yl)-1-methylpiperidine-3-carboxamide]"
19,1 to 10,"N#Cc1ccc(-c2cc(CNC(=O)C3CCOCC3)cc3c2CN(C#N)C3)cc1 [Example 219, N-((2-cyano-7-(4-cyanophenyl)isoindolin-5-yl)methyl)tetrahydro-2H-pyran-4-carboxamide]"
20,1 to 10,"N#CN1Cc2cccc(-c3ccccc3C(N)=O)c2C1 [Example 157, 2-(2-cyanoisoindolin-4-yl)benzamide]"
21,< 1,"Cn1cc(C(=O)NCc2cc3c(c(-c4ccc(C#N)cc4)c2)CN(C#N)C3)cn1 [Example 221, N-((2-cyano-7-(4-cyanophenyl)isoindolin-5-yl)methyl)-1-methyl-1H-pyrazole-4-carboxamide]"
